Data from patent publication US20160346225A1, “METHOD OF PREPARING INGESTIBLE MULTI-SHEET UNIT HAVING PREDETERMINED FUNCTIONS AND COMBINATIONS” (Purdue Research Foundation, priority 2011, published 2016).

Legend:
[1] = in the dissolution medium; cited from earlier work
[2] = dissolution of griseofulvin from particle-containing polymer films; assay type: physicochemical; details: for dissolution profile as a function of film thickness: FIG. 5D
Description: A 10 micron film can be configured with the film is a single layer of particles that are held together by the polymer sheet, where the particles may or may not be larger in diameter than the film thickness. In one example, a films can be on the order of 100 microns. However, the film can be as thin as roughly the size of the largest particles.

COC1=CC(=O)C[C@@H](C)[C@]12Oc1c(Cl)c(OC)cc(OC)c1C2=O [griseofulvin]
solubility [1]: poorly-soluble
dissolution of drug from immobilized particles at high drug load ([2]; about 72% (w/w) drug load in the film, FIG. 7): enhanced dissolution of drug from the immobilized particles is still observed
drug release rate from film matrix ([2]; film matrix (HPMC or alginate) vs same type of particles (API) free from polymer, same area of exposure, FIG. 6): accelerated drug release
dissolution profile as a function of film thickness ([2]; film thickness increased from 10 microns to 20 microns): initially increase the dissolution profile
dissolution profile as a function of film thickness ([2]; film thickness increased up to 70 microns): significantly decreases the dissolution profile
drug release rate as a function of drug load in the film ([2]; range of drug loading percentages, FIG. 7): increases with drug load
